{"source": "paper PMC12494798", "about": "“Anle138b binds predominantly to the central cavity in lipidic Aβ₄₀ fibrils and modulates fibril formation” (Nature Communications, 2025)", "biological_target": "T1, Aβ₄₀ (L1 lipidic Aβ₄₀ fibril, amyloid beta 1-40) (Homo sapiens, UniProt P05067)", "T1 construct": "gene APP; Aβ(1-40), type 1 lipidic (L1) fibril of two protofilaments", "T1 sequence (P05067 672-711)": "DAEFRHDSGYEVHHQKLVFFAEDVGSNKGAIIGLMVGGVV", "assay": "ITC on preformed L1 fibrils; supported by DNP-enhanced NHHC ssNMR contacts, (H)CANH titration and cryo-EM density", "assay_type": "binding"}
{"smiles": "Brc1cccc(-c2cc(-c3ccc4c(c3)OCO4)n[nH]2)c1", "note": "[anle138b, 3-(1,3-benzodioxol-5-yl)−5-(3-bromophenyl)−1H-pyrazole]", "values": [{"measurement": "Kd", "result": 640, "unit": "nM"}]}
